Reference: paper PMC3423353, “Natural Iminosugar (+)-Lentiginosine Inhibits ATPase and Chaperone Activity of Hsp90” (PLoS ONE, 2012)

Legend:
Hsp90 chaperone activity = target: T1, Hsp90 chaperone activity (Homo sapiens, UniProt P07900); assay: Citrate synthase thermal aggregation assay (chaperone activity); assay type: biochemical; conditions: 0.075 µM CS, 0.075 µM Hsp90, 0.3 µM compound (4-fold molar excess), 43°C, light scattering
T1 construct: purchased Assay Designs (Ann Arbor, MI, USA); host or cells: E. coli
Protocol: The ability of compounds 1, 3 and 4 to inhibit the chaperone activity of Hsp90 was also evaluated monitoring the citrate synthase (CS) thermal induced aggregation in the presence of Hsp90 [24], with or without these compounds. […] The spontaneous aggregation of CS at 43°C (♦) and the aggregation of CS at 43°C in the presence of 0.075 µM Hsp90 (Δ) or of 0.075 µM Hsp90 and 0.3 µM compound 1 (▪), 0.3 µM compound 2 (•), 0.3 compound 3 (□), or 0.3 µM compound 4 (○) are shown. Chaperone activity was evaluated as reported elsewhere by monitoring the thermal-induced aggregation of Citrate synthase (CS) in absence or in presence of a stoichiometric amount of Hsp90, and with or without a 4-fold molar excess of each testing compound. Aggregation was initiated by unfolding CS (0.075 µM) incubating the protein in 40 mM HEPES–KOH, pH 7.5 at 43°C. Aggregation was monitored by measuring light scattering at right angles with Perkin Elmer LS 55 fluorimeter in stirred and thermostated quartz cells. Both the emission and excitation wavelengths were set at 500 nm, and the band pass was 2 nm. Kinetics traces reported here are the averages of two measurements.

Hsp90 = target: T2, Hsp90 (Homo sapiens, UniProt P07900); assay: SPR binding assay on immobilized Hsp90
T2 construct: purchased Assay Designs (Ann Arbor, MI, USA); host or cells: E. coli
Protocol: Radicicol was used as positive controls.
SPR analyses were performed as describe elsewhere, [38]. Briefly, SPR analyses were performed using a Biacore 3000 optical biosensor equipped with research-grade CM5 sensor chips (GE Healthcare). Using this platform, two separate recombinant Hsp90 surfaces, a BSA surface and an unmodified reference surface were prepared for simultaneous analyses. […] Included in each analysis were multiple blank samples of running buffer alone. Binding experiments were performed at 25°C, using a flow rate of 50 µL min^−1, with 60 s monitoring of association and 200 s monitoring of dissociation. […] Sensorgram elaborations were performed using the Biaevaluation software provided by GE Healthcare.

[1] = target: T3, human full length recombinant Hsp90 (Homo sapiens, UniProt P07900); assay: Competitive fluorescence polarization assay with fluorescent geldanamycin probe (fGDA); assay type: binding; conditions: concentration up to 100 µM, added before or after fGDA
T3 construct: purchased Assay Designs (Ann Arbor, MI, USA); host or cells: E. coli
Protocol: In an effort to identify the Hsp90 region involved in (+)-lentiginosine binding, we first performed some fluorescence polarization assays using a fluorescent geldanamycin probe (fGDA) to evaluate if this compound could interact with the ATP-binding pocket of Hsp90 [25].
Binding of compound 1 to human full length recombinant Hsp90 was determined by a competitive binding fluorescence polarization assay using a fluorescent geldanamycin probe, as reported elsewhere.

Hsp90 ATPase activity = target: T4, Hsp90 ATPase activity (Homo sapiens, UniProt P07900); assay: ATP hydrolysis inhibition (ADP Hunter Plus assay); assay type: biochemical; conditions: 40 nM Hsp90, 100 µM ATP; for inhibition of the ATPase activity of Hsp90: 60 min, 40°C, different concentrations
T4 construct: purchased Assay Designs (Ann Arbor, MI, USA); host or cells: E. coli
Protocol: To evaluate the effect of interacting compounds on Hsp90 biological activity, the ATPase activity of the enzyme was tested in the presence of the most affine compounds (1, 3 and 4); […]. (−)-Lentiginosine was used as negative control.
The Discover RX ADP HunterTM Plus Assay kit was used following the manufacturer’s instructions. […]. ADP generation was measured using a Perkin Elmer LS 55 fluorimeter (540 nm excitation and 620 nm emission). Fluorescence intensity values measured for Hsp90 without any testing compound was assumed as 100% of enzyme activity. The background reaction rate was measured in a reaction lacking enzyme or substrate and subtracted from the experimental rates.

[2] = immobilized Hsp90, 25°C, single-site bimolecular model

Kd (Hsp90; [2]) [nM] | koff (Hsp90; [2]) | SMILES | inhibition of Hsp90 chaperone activity (CS aggregation kinetics) (Hsp90 chaperone activity) | displacement of fGDA from Hsp90 [1] | ATPase inhibitory power compared with 17-AAG (Hsp90 ATPase activity) | inhibition of the ATPase activity of Hsp90 (Hsp90 ATPase activity) | interaction with immobilized Hsp90 (Hsp90; 0.020 to 1 µM) | KD (Hsp90; [2])
 |  | O[C@H]1[C@H](O)CN2CCCC[C@H]12 [Compound 2, (−)-lentiginosine] | not able to inhibit the chaperone activity of Hsp90 |  |  |  | did not bind | No binding
108 ± 1.1 | 2.18±0.23 10^-3 1/s | N=C(N)NCCC[C@H](N)C(=O)N[C@H]1CCN2C[C@H](O)[C@@H](O)[C@@H]2C1 [Compound 3] | inhibitory effects were less evident |  |  | inhibit the ATPase activity of Hsp90 in a concentration dependent manner |  | 
45.9 ± 0.5 | 2.05±0.42 10^-3 1/s | CCCCCCc1cn([C@H]2CCN3C[C@H](O)[C@@H](O)[C@@H]3C2)nn1 [Compound 4] | inhibitory effects were less evident |  |  | inhibit the ATPase activity of Hsp90 in a concentration dependent manner |  | 
116 ± 1.6 | 2.55±0.35 10^-3 1/s | OCCc1cn([C@H]2CCN3C[C@H](O)[C@@H](O)[C@@H]3C2)nn1 [Compound 5] |  |  |  |  |  | 
306.8 ± 2.9 | 4.12±0.81 10^-3 1/s | N[C@@H](Cc1c[nH]c2ccccc12)C(=O)NCc1cn([C@H]2CCN3C[C@H](O)[C@@H](O)[C@@H]3C2)nn1 [Compound 6] |  |  |  |  |  | 

SMILES | Kd (Hsp90; [2]) [nM] | koff (Hsp90; [2]) | inhibition of Hsp90 chaperone activity (CS aggregation kinetics) (Hsp90 chaperone activity) | displacement of fGDA from Hsp90 [1] | ATPase inhibitory power compared with 17-AAG (Hsp90 ATPase activity) | inhibition of the ATPase activity of Hsp90 (Hsp90 ATPase activity) | interaction with immobilized Hsp90 (Hsp90; 0.020 to 1 µM) | KD (Hsp90; [2])
O[C@@H]1[C@@H](O)CN2CCCC[C@@H]12 [Compound 1, (+)-lentiginosine] | 24.7 ± 0.6 | 1.86±0.31 10^-3 1/s | inhibition of Hsp90 chaperone activity | unable to displace fGDA | inhibitory power higher than that measured for 17-AAG | inhibit the ATPase activity of Hsp90 in a concentration dependent manner |  | 
N[C@H]1CCN2C[C@H](O)[C@@H](O)[C@@H]2C1 [Compound 7] | 1009 ± 5.8 | 25.6±2.1 10^-3 1/s |  |  |  |  |  | 
